This is an account of results in patent publication US20050163879A1, “Composition for preventing or treating dementia comprising a hydroxycinnamic acid derivative or an extract of a plant of genus Angelicae containing same” (Scigenic Co. Ltd. Biosynergen, Inc., priority 1999, published 2005).

Test [1] deals with choline acetyltransferase (ChAT). Briefly: Immunohistochemical staining of ChAT in septal nucleus 5 days after β-amyloid. In kind it is in vivo, mouse. Conditions: 0.006% (w/v) ferulic acid for 4 weeks, then β-amyloid (1-42), vs β-amyloid (1-42) only, FIG. 9c. On the procedure: Three groups of mice were administered with ferulic acid and/or β-amyloid in accordance with the method of (1). 5 days after the administration of β-amyloid, immunohistochemical staining was carried out according to the method of (1) except for employing 1:750 dilution of anti-choline-acetyltransferase (ChAT) antibody (Chemicon) in order to stain CHAT, an enzyme for acetylcholine synthesis, in the septal nucleus wherein acetylcholine neurons are distributed.

The test system of test [2] is mice administered with β-amyloid (1-42). The test is described as follows: Passive avoidance test in mice injected with β-amyloid (1-42) into the cerebral ventricle. Format: in vivo, mouse. As to conditions: for dementia-preventive effect in passive avoidance test: FIGS. 7A and 7B. Here is the method: (§1) The administration of β-amyloid (1-42) to a mouse was carried out in accordance with the method described by Laursen & Belknap (J. Pharmacol. Methods, 16, 355-357 (1986)). Specifically, 5 μl of phosphate-buffered saline containing 1.85 μg of β-amyloid (1-42) was put in a 50 μl Hamilton syringe fitted with a 26 gauge needle, the tip of the needle was inserted into the bregma of the mouse and then the β-amyloid (1-42) solution was administered thereto. Each mouse of a control group received an equal amount of β-amyloid (42-1) in place of β-amyloid (1-42). A passive avoidance test was carried out at days 1-2 (day 1: training, day 2: test) and a Y-maze test, at days 3-4 (day 3: training, day 4: test) after the administration.
In order to examine the learning and memory-retention ability of a mouse, a passive avoidance test was carried out in accordance with the method described in Song et al., J. Neurochem., 71, 875-878 (1998), as follows.
A passive avoidance case equipped with a light room and a dark room was prepared, the floor of the dark room being designed to deliver an electrical shock to a test animal. First, a mouse was put in the light room and, upon entering the dark room, it received an electrical shock at 0.25 mA for 1 sec. Twenty-four hours after the training, the mouse was put in the light room again and the time it took to enter the dark room was measured as a passive avoidance time. The maximum time was set at 300 sec., i.e., in case when the mouse took more than 300 sec. to enter the dark room, the passive avoidance time was determined to be 300 sec.
Forty 4- to 5-week old mice each weighing 20 to 25 g were divided into four groups of equal number. The Angelicae gigas Nakai extract prepared in Example 1 was dissolved in water to concentrations of 0.08% (w/v) and 0.1% (w/v), respectively, […] the solution/mouse. The mice of the other two groups were provided with normal drinking water for 4 weeks. Thereafter, the mice of one of the two normal drinking water groups were administered into their cerebral ventricle with 1.85 μg of β-amyloid (42-1) (“control group”) and the mice of the remaining three groups, with β-amyloid (1-42) (Aβ1-42), as in Reference Example 1. Then, a passive avoidance test was carried out for each group of mice as in Reference Example 2 and the data attained were averaged for each group.
Fifty 4- to 5-week old mice each weighing 20 to 25 g were divided into five groups by equal number. Ferulic acid was dissolved in water to concentrations of 0.002% (w/v), 0.004% (w/v) and 0.006% (w/v), respectively, […] the solution/mouse. The mice of the other two groups were provided with normal drinking water for 4 weeks. Thereafter, the mice of one of two normal drinking water groups were administered into their cerebral ventricle with 1.85 μg of β-amyloid (42-1) (“control group”) and the mice of the remaining four groups, with β-amyloid (1-42)(Aβ1-42), as in Reference Example 1. Then, a passive avoidance test was carried out for each group of mice as in Reference Example 2 and the data attained were averaged for each group.
Forty 4- to 5-week old mice each weighing 20 to 25 g were divided into four groups of equal number. Decursinol was dissolved in corn oil, mixed with a mouse fodder, and the mice of two groups were provided with the resulting fodder for 4 weeks at a daily dose of 7.5 mg decursinol/kg or 15 mg decursinol/kg. […]

Another test concerns OX-42. Briefly: Immunohistochemical staining of OX-42 in pyriform cortex and amygdaloid nucleus one day after β-amyloid. Format: in vivo, mouse. Conditions: 0.006% (w/v) ferulic acid in drinking water for 4 weeks, then β-amyloid (1-42); 1 day after; vs β-amyloid (1-42) only; FIGS. 8c and 8f. On the procedure:
4- to 5-week old mice each weighing 20 to 25 g was divided into three groups. Ferulic acid was dissolved in water to a concentration of 0.006% (w/v), and the mice of one group were provided with the resulting solution instead of water for 4 weeks. The mice of other two groups were provided with normal drinking water for 4 weeks. Thereafter, the mice of one of two normal drinking water groups were administered, into their cerebral ventricle, with 1.85 μg of β-amyloid (42-1) (“control group”) and the mice of the remaining two groups, with β-amyloid (1-42) (β1-42), as in Reference Example 1.
One day after the administration of β-amyloid, each of the mice was anesthetized with sodium pentobarbital and its abdomen was incised. The mouse was fixed by passing 4% paraformaldehyde through its left ventricle and its brain was excised.
In accordance with the method described in Cho et al., J. Comp. Neurol., 369: 264-276 (1996), a section was prepared from the excised brain and immunohistochemical staining was carried out in order to stain […] in the pyriform cortex and the amygdaloid nucleus by employing 1:500 dilution of anti-OX-42 antibody (Halan (Sera-Lab)).

The test system of a further test is mouse cerebral neurons. Briefly: β-amyloid (1-42)-induced leakage of lactate dehydrogenase (LDH) from primary mouse cortical culture. Conditions: 100 μM ferulic acid 30 minutes before 25 μM β-amyloid (1-42); 24 and 48 hours; vs β-amyloid (1-42) group; FIG. 10. In kind it is cell-based. On the procedure:
In accordance with the method of Wie et al. (Neurosci. Lett., 225: 93-96 (1997)), glia was cultured from cells of the cerebral cortex of a mouse and neurons of mouse cerebrum were cultured by employing the glia as a substrate.
The culture of mouse cerebral neurons was divided into three groups. Neurons of one group received no treatment (control group). Neurons of the other two groups were treated with 25 μM of β-amyloid (1-42), and one of these two groups were treated with 100 μM of ferulic acid 30 minutes before the administration of β-amyloid (1-42).
The degree of damage in neurons was determined by measuring the concentration of lactate dehydrogenase (LDH), which was released from the damaged or disrupted neurons into the culture medium, in accordance with the method of Wie et al. Samples of the culture medium were taken at 24 and 48 hours after the administration of β-amyloid (1-42), respectively, and their LDH concentrations were measured with a microplate reader.

The test system of test [3] is mice administered with β-amyloid (1-42). Briefly: Y-maze test in mice injected with β-amyloid (1-42) into the cerebral ventricle. Format: in vivo, mouse. As to conditions: for alternation behavior (%): compared with β-amyloid (1-42) only group. Here is the method: as §1
Spontaneous alternation behavior of a mouse was examined by a Y-maze test in accordance with the method described in Starter et al., Psychopharmacology, 94, 491-495 (1988) as follows.
The Y-maze consisted of three arms shaped like Y. A test mouse was placed in one of the arms such that it faced the arm's terminal and allowed to roan freely through the three arms for […]. The number of alternation was determined by counting the number of occasions the mouse passed the three arms consecutively. Spontaneous alternation behavior was determined as the percentage of the alternation number based on the total number of arm entries.
Further, Y-maze tests were carried out employing the above-prepared mice as in Reference Example 3.
Forty 4- to 5-week old mice each weighing 20 to 25 g were divided into four groups of equal number. Decursinol was dissolved in corn oil, mixed with a mouse fodder, and the mice of two groups were provided with the resulting fodder for 4 weeks at a daily dose of 7.5 mg decursinol/kg or 15 mg decursinol/kg. The mice of the other two groups were provided with a normal mouse fodder containing an equal amount of corn oil as above for 4 weeks. Thereafter, the mice of one of the two normal fodder groups were administered, into their cerebral ventricle, with 1.85 μg of β-amyloid (42-1) (“control group”) and the mice of the remaining three groups, with β-amyloid (1-42) (Aβ1-42), as in Reference Example 1. Then, a passive avoidance test and a Y-maze test were carried out for each group of mice as in Reference Examples 2 and 3, respectively, and the data attained were averaged for each group.

Turning to `COc1cc(/C=C/C(=O)O)ccc1O` [ferulic acid], the “ChAT staining in septal nucleus” value in test [1] is recorded as “the decrease was suppressed”. Further, in test [2] (0.006& (w/v) ferulic acid for 1, 2, 3 and 4 weeks, FIG. 3B), the “passive avoidance response time” value is “becomes increasingly higher with the period of administration”. For the same compound, the “decrease in passive avoidance response time” value in test [2] (ferulic acid 0.002%, 0.004% and 0.006% (w/v) in drinking water for 4 weeks before Aβ1-42, FIG. 3A) is “prevented dose-dependently”. The “dementia-preventive effect in passive avoidance test” value in test [2] (ferulic acid alone, low amount: 0.002% (w/v) or 0.003% (w/v)) is given as “no dementia-preventive effect”. Also, the “OX-42 staining in pyriform cortex and amygdaloid nucleus” value with OX-42 was “much less pronounced”. For the same compound, in the test on mouse cerebral neurons, the “LDH concentration in culture medium” value is “much lower”. The “number of arm entries (measure of spontaneous movement)” value in test [3] (ferulic acid, period of administration varied, FIG. 4B) is reported as “nearly the same for all groups”. For the same compound, the “alternation behavior (%)” value in test [3] (ferulic acid, period of administration varied, FIG. 4A) was “higher and increased in proportion to the period of administration”.

As for `CC1(C)Oc2cc3oc(=O)ccc3cc2C[C@@H]1O` [decursinol], the “dementia-preventive effect in passive avoidance test” value in test [2] (decursinol alone, low amount: 2 mg/kg or 3 mg/kg) is listed as “no dementia-preventive effect”. Besides, the “decrease in passive avoidance response time due to β-amyloid (1-42)” value in test [2] (decursinol in fodder, 7.5 mg/kg or 15 mg/kg daily for 4 weeks, FIG. 6A) is “prevented”. Further, the “number of arm entries (measure of spontaneous movement)” value in test [3] (decursinol 7.5 mg/kg or 15 mg/kg daily for 4 weeks, FIG. 6C) is “nearly the same for all groups”. In test [3] (decursinol 7.5 mg/kg or 15 mg/kg daily for 4 weeks, FIG. 6B), the “alternation behavior (%)” value was “higher and increased dose-dependently”.
